Results on twelve molecules are retold here after patent US20230107941A1, “HEPATITIS B CAPSID ASSEMBLY MODULATORS” (Venatorx Pharmaceuticals, Inc., priority 2019, published 2023).

The subject of one series is HBV. Description: In vitro antiviral assay: anti-HBV replication in HepAD38 cells (extracellular HBV DNA by QPCR). It counts as cell-based, hepatitis B virus (genotype D, serotype ayw). As to conditions: Hepatitis B virus. As for the experimental part: The anti-HBV activity of the Capsid Assembly Modulators (CAMs) was evaluated in a cell based assay utilizing the human hepatoma cell line HepAD38 (Ladner, S K., et al., 1998). HepAD38 cells were derived from the parental line, HepG2, that were stably transfected with a construct containing an HBV genome (genotype D, serotype ayw) under the control of a tetracycline repressible CMV promoter. Upon removal of tetracycline, viral pre-genomic RNA (pgRNA) and mRNAs are expressed and infectious viral particles are assembled and secreted into the culture medium providing a reliable, robust system to measure multiple steps of the HBV life cycle. Disruption of capsid formation results in reduced levels of DNA-containing virus particles that are released into the culture supernatant. To quantify the effect of CAMs on HBV replication, we developed a sensitive QPCR-based assay that measures extracellular HBV DNA levels upon treatment of HepAD38 cells with various concentrations of test compounds.
HepAD38 cells were maintained in DMEM/F12 medium containing 10% FBS, 400 μg/mL G418 and 0.3 μg/mL tetracycline (tet+ media) to maintain repression of HBV replication. To evaluate each compound, HepAD38 cells were seeded into 24-well collagen coated culture plates (Corning BioCoat) at a density of 200,000 cells per well in 1 mL of medium without tetracycline (tet-media) and allowed to adhere overnight at 37° C., 5% CO2 in a humidified incubator. The following day, media was refreshed and a dose range of each compound was prepared by performing 1 log10 serial dilutions in 100% DMSO at 200× the desired assay concentration. Dilutions were then added to the cells resulting in a final dose range of 1 μM to 10 pM and the plates were returned to the incubator. Following 7 days of incubation, culture supernatants were harvested and HBV DNA levels were evaluated by QPCR and compared to the vehicle treated control wells (i.e. DMSO alone).
To quantify HBV DNA levels, cell culture supernatants were diluted 1:10 in sterile, nuclease-free water (Gibco). The diluted supernatants were subsequently added to a PCR master mix containing 1× Roche Light Cycler Master Mix, 0.5 μM forward primer, 0.5 μM reverse primer (Fwd: 5′-[…] (SEQ ID NO 1); Rev: 5′-[…] (SEQ ID NO 2)), 0.2 μM Roche Universal Probe Library Probe 25. The volume was brought to 20 μL with nuclease-free water and amplification of the HBV target sequence was performed using a Roche LightCycler 480 QPCR instrument. PCR extended out to 45 cycles with each cycle consisting of a denaturation step at 95° C. for 10 sec., followed by an annealing step at 60° C. for 10 sec. and a brief extension step at 72° C. for 1 sec.
Extracellular HBV DNA levels, expressed in copies/mL, were determined by comparison to a standard curve (10^2-10^9 copies/mL) using the Roche LightCycler analysis software. These values were subsequently converted to percent inhibition of HBV replication by dividing the HBV DNA levels in the experimental samples with those obtained from the vehicle control (˜1-2×10^5 copies/mL). Potency, expressed as an EC50 (the effective concentration required to inhibit 50% of HBV replication), was calculated from the dose-response curve using a 4-parameter non-linear regression analysis (GraphPad Prism). The nucleoside analog inhibitor entecavir was used as a positive control to validate each assay run. The EC50 value of entecavir in the HepAD38 assay was 0.5 nM, as previously reported in the literature.

Series [1] is described as follows: In vitro cytotoxicity assay (MTT cell viability) in HepG2 cells. As to conditions: human. Format: cell-based, human. On the procedure:
To evaluate antiviral selectivity, the cytotoxic activity of each compound was determined using a standard cell viability assay performed on the parental HepG2 cell line. Cell viability was determined by measuring the conversion of 3-(4,5-dimethylthiazol-2-yl)-2,5-diphenyltetrazolium bromide (MTT) to the insoluble formazan salt crystal that occurs in live cells. Briefly, HepG2 cells were seeded in 96-well plates at a density of 20,000 cells per well in […] (complete growth medium) and allowed to adhere overnight in a 37° C., […] humidified incubator. The next day, test agents were prepared by performing 8 half-log10 serial dilutions in 100% DMSO at 200× the final desired concentration in the assay. Compounds were tested over a range of concentrations from 30 μM to 1.0 nM in the assay. HepG2 cells were incubated in the presence of various concentrations of CAMs for 7 days in a 37° C., […] humidified incubator. At the completion of the 7-day incubation period, MTT reagent was added to each well and the mixture was incubated for an additional 3-4 hours. At the completion of the incubation period, all wells were aspirated to remove the culture medium. The formazan crystals were solubilized from the cell monolayers with 100% DMSO. Plates were briefly mixed on an orbital shaker and absorbance was measured at 492 nm using a Perkin-Elmer EnVision multi-label plate reader. All absorbance values were converted to a percentage of the signal obtained from the vehicle treated controls. Absorbance values at 492 nm are directly proportional to the number of viable cells present in the sample. A CC50 value (cytotoxic concentration that results in loss of 50% cell viability) was calculated from the dose-response curve by 4-parameter, non-linear regression analysis using the GraphPad Prism software. The positive control compound, staurosporine, reduced the viability of HepG2 cells in a dose-dependent manner (CC50=100 nM).

Where [2] appears, read: HePAD38, 168 h, 7 days incubation, extracellular HBV DNA by QPCR, read-out: Anti-HBV EC50.

Molecules are shown by their SMILES. Like-named read-outs stand apart in the source and are kept apart here.

On to `Cc1cc(NC(=O)c2c(C)c(C(=O)C(=O)N[C@@H]3CC[C@H](O)CC3(C)C)n(C)c2C)ccc1F` (single isomer, unassigned) [Example 142], for which the EC50 (in general, the concentration giving half of the maximal effect) with HBV (setting [2]) was less than 50 nM. Also, the CC50 (in general, the concentration that lowers cell viability or growth by half) at 7 days in series [1] is greater than 30000 nM. On the same counts, the results for `Cc1cc(NC(=O)c2c(C)c(C(=O)C(=O)N[C@@H]3CC[C@@H](O)CC3(C)C)n(C)c2C)ccc1F` (single isomer, unassigned) [Example 143] are less than 50 nM and greater than 30000 nM. On the same counts, the results for `Cc1cc(NC(=O)c2c(C)c(C(=O)C(=O)N[C@H]3CC[C@@H](S(C)(=O)=O)CC3)n(C)c2C)ccc1F` [Example 1, N-(4-fluoro-3-methylphenyl)-1,2,4-trimethyl-5-(2-(((1s,4s)-4-(methylsulfonyl)cyclohexyl)amino)-2-oxoacetyl)-1H-pyrrole-3-carboxamide] are less than 50 nM and greater than 30000 nM. Regarding `Cc1c(C(=O)Nc2cc(Cl)nc(Cl)c2)c(C)n(C)c1C(=O)C(=O)N[C@H]1CC[C@@H](O)CC1` [Example 2, N-(2,6-dichloropyridin-4-yl)-5-(2-(((1s,4s)-4-hydroxycyclohexyl)amino)-2-oxoacetyl)-1,2,4-trimethyl-1H-pyrrole-3-carboxamide], the EC50 with HBV (setting [2]) is less than 50 nM. In series [1], this molecule returned a 50% cytotoxic concentration (CC50) at 7 days greater than 30000 nM. For the molecule `Cc1cc(NC(=O)c2c(C)c(C(=O)C(=O)N[C@]3(C4CC4)CC[C@@H](O)CC3)n(C)c2C)ccc1F` [Example 3, 5-(2-(((1r,4r)-1-cyclopropyl-4-hydroxycyclohexyl)amino)-2-oxoacetyl)-N-(4-fluoro-3-methylphenyl)-1,2,4-trimethyl-1H-pyrrole-3-carboxamide], in the series on HBV (setting [2]), the EC50 was less than 50 nM. The CC50 at 7 days in series [1] was greater than 30000 nM. Turning to `CC[C@]1(NC(=O)C(=O)c2c(C)c(C(=O)Nc3ccc(F)c(C)c3)c(C)n2C)CC[C@H](O)CC1` [Example 4, 5-(2-(((1r,4r)-1-ethyl-4-hydroxycyclohexyl)amino)-2-oxoacetyl)-N-(4-fluoro-3-methylphenyl)-1,2,4-trimethyl-1H-pyrrole-3-carboxamide], the EC50 in the series on HBV (setting [2]) is less than 50 nM. In series [1], the 50% cytotoxic concentration (CC50) at 7 days was greater than 30000 nM.

`CC[C@]1(NC(=O)C(=O)c2c(C)c(C(=O)Nc3ccc(F)c(C)c3)c(C)n2C)CC[C@@H](O)CC1` [Example 5, 5-(2-(((1s,4s)-1-ethyl-4-hydroxycyclohexyl)amino)-2-oxoacetyl)-N-(4-fluoro-3-methylphenyl)-1,2,4-trimethyl-1H-pyrrole-3-carboxamide]: the EC50 with HBV (setting [2]) is less than 50 nM. In addition, in series [1], the CC50 at 7 days is greater than 30000 nM. On the same counts, the results for `Cc1cc(NC(=O)c2c(C)c(C(=O)C(=O)N[C@]3(C4CC4)CC[C@H](O)CC3)n(C)c2C)ccc1F` [Example 6, 5-(2-(((1s,4s)-1-cyclopropyl-4-hydroxycyclohexyl)amino)-2-oxoacetyl)-N-(4-fluoro-3-methylphenyl)-1,2,4-trimethyl-1H-pyrrole-3-carboxamide] are less than 50 nM and greater than 30000 nM. With `CCc1c(C(=O)Nc2ccc(F)c(C)c2)c(C)n(C)c1C(=O)C(=O)N[C@]1(C)CC[C@H](O)CC1` [Example 7, 4-ethyl-N-(4-fluoro-3-methylphenyl)-5-(2-(((1s,4s)-4-hydroxy-1-methylcyclohexyl)amino)-2-oxoacetyl)-1,2-dimethyl-1H-pyrrole-3-carboxamide], the EC50 in the series with HBV (setting [2]) was less than 50 nM. This molecule also displayed a CC50 at 7 days in series [1] greater than 30000 nM. `Cc1cc(NC(=O)c2c(C)c(C(=O)C(=O)N[C@H]3CC[C@H](S(C)(=O)=O)CC3)n(C)c2C)ccc1F` [Example 8, N-(4-fluoro-3-methylphenyl)-1,2,4-trimethyl-5-(2-(((1r,4r)-4-(methylsulfonyl)cyclohexyl)amino)-2-oxoacetyl)-1H-pyrrole-3-carboxamide]: the EC50 in the series on HBV (setting [2]) was less than 50 nM. Further, the 50% cytotoxic concentration (CC50) at 7 days in series [1] is 5000 to 30000 nM. Take `C=C1[C@H](CO)[C@@H](O)C[C@@H]1n1cnc2c(=O)[nH]c(N)nc21` [entecavir, reference compound]: in the series with HBV (HePAD38, positive control, read-out: EC50 in the HepAD38 assay), the EC50 turned out to be 0.5 nM.

In the case of `CN[C@@H]1C[C@H]2O[C@@](C)([C@@H]1OC)n1c3ccccc3c3c4c(c5c6ccccc6n2c5c31)C(=O)NC4` [staurosporine, reference compound], in series [1] (positive control, HepG2 cells, MTT, read-out: CC50 (viability of HepG2 cells)), the CC50 at 7 days came to 100 nM.
